Laboratory results published in patent US11439641B2, “Pyrimidine JAK inhibitors for the treatment of skin diseases” (THERAVANCE BIOPHARMA R&D IP, LLC, priority 2019, dated 2022).

Legend:
[1] = molecular target: Tyk2 (Homo sapiens (Human), UniProt P29597); assay: Biochemical JAK and Tyk2 Kinase Assays (LanthaScreen), Tyk2; conditions: 10 μM ATP (Km), pIC50 converted to pKi by Cheng-Prusoff
[2] = Aqueous Solubility Assay; conditions: PBS buffer pH 7.4; maximum upper limit 1,000 μM
[3] = molecular target: JAK3 (Homo sapiens (Human), UniProt P52333); assay: Biochemical JAK and Tyk2 Kinase Assays (LanthaScreen), JAK3; conditions: 1.6 μM ATP (Km), pIC50 converted to pKi by Cheng-Prusoff
[4] = Solubility Assay in Organic Excipients; conditions: maximum upper limit 20,000 μM; for Solubility in MCT (mg/mL): medium chain triglycerides (MCT)
[5] = molecular target: JAK1 (Homo sapiens (Human), UniProt P23458); assay: Biochemical JAK and Tyk2 Kinase Assays (LanthaScreen), JAK1; conditions: 25 μM ATP (Km), pIC50 converted to pKi by Cheng-Prusoff
[6] = molecular target: JAK2 (Homo sapiens (Human), UniProt O60674); assay: Biochemical JAK and Tyk2 Kinase Assays (LanthaScreen), JAK2; conditions: 3 μM ATP (Km); pIC50 converted to pKi by Cheng-Prusoff
[7] = test system: IL-22 suppressed Filaggrin expression in normal human epidermal keratinocytes; assay: Recovery of IL-22 Suppressed Filaggrin in Normal Human Epidermal Keratinocytes; assay type: cell-based; conditions: IL-22 50 ng/mL, real-time PCR
Description: Assay 7: Recovery of IL-22 Suppressed Filaggrin in Normal Human Epidermal Keratinocytes
IL-22 is known to inhibit the expression of terminal differentiation genes, such as Filaggrin. The recovery level of test compound for interleukin-22 (IL-22) suppressed Filaggrin expression was measured in the normal human epidermal keratinocytes (ATCC) using real-time PCR.
Primary epidermal keratinocytes were cultured in a 37° C., 5% CO2 humidified incubator in dermal cell basal medium (ATCC) supplemented with keratinocyte growth kit (ATCC) and 1× Pen/Strep (Life Technologies). Cells were seeded at 5,000 cells/well in BioCoat 96-well plates (Corning) with 100 μl and incubated at 37° C., 5% CO2 for 3 to 4 days till 100% confluency. Then, the medium was removed and replaced with 1504 of medium containing does-response of test compounds. Compounds were serially diluted in DMSO and then diluted another 1000-fold in media to bring the final DMSO concentration to 0.1%. On day 1 of the assay, cells were incubated with test compounds at 37° C. for 1 h, and followed by the addition of followed by the addition of IL-22 (R&D Systems; final concentration 50 ng/mL) in pre-warmed media (50 μL) for 4 days. The medium with test compounds and IL-22 was changed once on day 3. On day 5, cells were washed with 1×PBS (Gibco) and lysed with 50 μl of Lysis Buffer containing 0.5 μl DnaseI from TaqMan® Gene Expression Cells-to-Ct™ Kit (Life Technologies). After incubation at room temperature (RT) for 5 minutes, 5 μl of Stop solution from the kit was added and then incubated at RT for 2 minutes. 11.25 μl of lysate, 12.5 μl of 2×RT buffer and 1.25 μl 20×RT enzyme mix from the kit were mixed. The reverse transcription reaction was carried out by incubating the mixture at 37° C. for 60 minutes and then 95° C. for 5 minutes to generate cDNA. To assemble the PCR cocktail, each reaction contained 10 μl of 2× TaqMan® Gene Expression Mater Mix, 1 μl of 2× TaqMan® Filaggrin Gene Expression Assay (Life Technologies), 1 μl of 2× TaqMan® UBC Gene Expression Assay (Life Technologies), 4 μl of nuclease-free water and 4 μl of cDNA. PCR reactions were done on StepOnePlus™ (Life Technologies) with cycling conditions of 50° C. for 2 minutes, 95° C. for 10 minutes followed by 40 cycles of 95° C. for 15 seconds and 60° C. for 1 minute. Fluorescence signals were captured after each cycle. Comparative CT method was used to quantify gene expression with cells without IL-22 and test compounds as baseline control.

[8] = Human Liver Microsome Assay; conditions: human liver microsomes 0.1 mg/mL, 0.1 μM compound, 1 mM NADPH, 37° C.
Description: Assay 4: Human Liver Microsome Assay
The objective of this assay was to assess the metabolic stability of test compounds in an in vitro human liver sub-fraction. Human liver microsomes obtained from Bioreclamation-IVT (Baltimore, Md.) were thawed on ice and diluted into 0.1 M potassium phosphate buffer pH 7.4 to yield final incubation protein concentrations of 0.1 mg/mL. Test compounds (10 mM) were diluted into NADPH cofactor to yield final incubation concentrations of 0.1 μM test compound and 1 mM NADPH. Incubations were conducted at 37° C. temperature and test aliquots were taken at time points 0, 5, 8, 15, 30 and 45 minutes. Each aliquot was crashed into water with 3% formic acid and 1 μM internal standard. The resulting samples were injected onto an LC-MS/MS system for analysis.
For each incubation, the peak area of the analytes in each t0 aliquot was set to 100% and the peak areas from subsequent time point aliquots were converted to percentage of parent compound remaining relative to t0. The percentage of parent compound remaining was converted to natural log scale and plotted versus time in minutes. A linear regression analysis was performed for the initial decline of the parent disappearance profile and a formula for the best-fit line determined. The slope of the resultant line was normalized to protein concentration in mg/mL protein or number of cells/mL and CLint was calculated as follows for liver microsomes: CLint(μL·min^−1·mg^−1)=(Slope×1000)/[protein,mg/mL]
CLint values from 9-49 μl/min/mg represent moderate clearance (i.e. 30-70% of hepatic blood flow in human) and values >50 μl/min/mg represent high hepatic clearance (i.e. >70% of hepatic blood flow in human).

Chain of Tyk2 (P29597 whole entry): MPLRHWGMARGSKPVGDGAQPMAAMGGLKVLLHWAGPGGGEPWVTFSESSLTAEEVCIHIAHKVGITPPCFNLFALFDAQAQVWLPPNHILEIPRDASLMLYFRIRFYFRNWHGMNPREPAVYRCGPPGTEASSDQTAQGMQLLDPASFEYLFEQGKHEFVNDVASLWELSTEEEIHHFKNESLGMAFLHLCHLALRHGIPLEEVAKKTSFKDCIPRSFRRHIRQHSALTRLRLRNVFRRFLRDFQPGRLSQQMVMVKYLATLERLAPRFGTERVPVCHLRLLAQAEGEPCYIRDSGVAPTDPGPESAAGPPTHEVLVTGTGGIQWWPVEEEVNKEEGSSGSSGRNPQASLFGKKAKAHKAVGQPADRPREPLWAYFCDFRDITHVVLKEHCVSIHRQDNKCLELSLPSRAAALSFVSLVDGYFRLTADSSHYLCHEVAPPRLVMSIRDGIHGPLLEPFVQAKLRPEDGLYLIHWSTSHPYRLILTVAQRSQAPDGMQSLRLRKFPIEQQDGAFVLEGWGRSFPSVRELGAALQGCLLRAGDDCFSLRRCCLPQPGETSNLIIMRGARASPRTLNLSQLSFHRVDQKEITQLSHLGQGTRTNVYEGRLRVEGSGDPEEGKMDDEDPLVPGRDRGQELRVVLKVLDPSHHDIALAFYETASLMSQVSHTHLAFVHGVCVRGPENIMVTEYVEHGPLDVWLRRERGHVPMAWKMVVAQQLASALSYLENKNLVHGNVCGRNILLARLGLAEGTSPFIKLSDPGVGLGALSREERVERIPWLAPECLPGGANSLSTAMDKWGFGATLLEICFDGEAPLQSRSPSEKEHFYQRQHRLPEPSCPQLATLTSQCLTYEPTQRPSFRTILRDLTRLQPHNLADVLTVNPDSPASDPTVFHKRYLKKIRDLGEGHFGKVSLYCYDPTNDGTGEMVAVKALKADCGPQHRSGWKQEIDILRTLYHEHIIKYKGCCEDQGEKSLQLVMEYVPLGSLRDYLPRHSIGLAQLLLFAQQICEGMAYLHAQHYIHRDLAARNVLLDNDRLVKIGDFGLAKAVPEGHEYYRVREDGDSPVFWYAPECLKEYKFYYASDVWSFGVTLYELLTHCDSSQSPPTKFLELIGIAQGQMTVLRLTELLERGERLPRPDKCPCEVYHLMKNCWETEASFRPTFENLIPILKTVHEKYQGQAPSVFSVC
Chain of JAK3 (P52333 whole entry): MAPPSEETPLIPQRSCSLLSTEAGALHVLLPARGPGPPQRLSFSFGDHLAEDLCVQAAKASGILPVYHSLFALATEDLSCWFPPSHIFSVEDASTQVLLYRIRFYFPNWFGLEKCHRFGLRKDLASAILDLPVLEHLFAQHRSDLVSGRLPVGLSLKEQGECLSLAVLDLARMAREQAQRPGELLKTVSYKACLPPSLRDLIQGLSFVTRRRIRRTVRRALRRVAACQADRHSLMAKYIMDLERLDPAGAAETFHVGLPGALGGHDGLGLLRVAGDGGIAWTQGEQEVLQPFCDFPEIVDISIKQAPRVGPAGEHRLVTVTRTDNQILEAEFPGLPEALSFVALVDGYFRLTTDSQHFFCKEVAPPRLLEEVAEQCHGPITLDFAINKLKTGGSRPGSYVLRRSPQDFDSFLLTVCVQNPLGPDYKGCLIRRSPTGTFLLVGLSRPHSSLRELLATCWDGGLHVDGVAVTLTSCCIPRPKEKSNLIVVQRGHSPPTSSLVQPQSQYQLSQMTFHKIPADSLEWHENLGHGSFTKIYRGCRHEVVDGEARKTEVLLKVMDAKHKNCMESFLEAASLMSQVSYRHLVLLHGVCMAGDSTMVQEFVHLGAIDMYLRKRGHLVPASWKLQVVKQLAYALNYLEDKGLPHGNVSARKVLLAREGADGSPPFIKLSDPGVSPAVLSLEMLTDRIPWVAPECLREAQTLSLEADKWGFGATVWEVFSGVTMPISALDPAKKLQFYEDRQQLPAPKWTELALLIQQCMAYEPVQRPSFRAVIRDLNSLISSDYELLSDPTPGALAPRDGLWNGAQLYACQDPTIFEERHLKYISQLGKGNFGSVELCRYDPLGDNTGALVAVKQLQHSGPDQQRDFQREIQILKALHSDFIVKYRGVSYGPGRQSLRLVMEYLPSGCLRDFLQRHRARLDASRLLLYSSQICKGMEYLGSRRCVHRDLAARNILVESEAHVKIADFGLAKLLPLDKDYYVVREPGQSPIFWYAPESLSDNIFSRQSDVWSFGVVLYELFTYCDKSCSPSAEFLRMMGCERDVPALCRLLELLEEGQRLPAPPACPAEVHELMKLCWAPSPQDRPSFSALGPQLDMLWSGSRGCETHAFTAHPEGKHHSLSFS
Chain of JAK2 (O60674 whole entry): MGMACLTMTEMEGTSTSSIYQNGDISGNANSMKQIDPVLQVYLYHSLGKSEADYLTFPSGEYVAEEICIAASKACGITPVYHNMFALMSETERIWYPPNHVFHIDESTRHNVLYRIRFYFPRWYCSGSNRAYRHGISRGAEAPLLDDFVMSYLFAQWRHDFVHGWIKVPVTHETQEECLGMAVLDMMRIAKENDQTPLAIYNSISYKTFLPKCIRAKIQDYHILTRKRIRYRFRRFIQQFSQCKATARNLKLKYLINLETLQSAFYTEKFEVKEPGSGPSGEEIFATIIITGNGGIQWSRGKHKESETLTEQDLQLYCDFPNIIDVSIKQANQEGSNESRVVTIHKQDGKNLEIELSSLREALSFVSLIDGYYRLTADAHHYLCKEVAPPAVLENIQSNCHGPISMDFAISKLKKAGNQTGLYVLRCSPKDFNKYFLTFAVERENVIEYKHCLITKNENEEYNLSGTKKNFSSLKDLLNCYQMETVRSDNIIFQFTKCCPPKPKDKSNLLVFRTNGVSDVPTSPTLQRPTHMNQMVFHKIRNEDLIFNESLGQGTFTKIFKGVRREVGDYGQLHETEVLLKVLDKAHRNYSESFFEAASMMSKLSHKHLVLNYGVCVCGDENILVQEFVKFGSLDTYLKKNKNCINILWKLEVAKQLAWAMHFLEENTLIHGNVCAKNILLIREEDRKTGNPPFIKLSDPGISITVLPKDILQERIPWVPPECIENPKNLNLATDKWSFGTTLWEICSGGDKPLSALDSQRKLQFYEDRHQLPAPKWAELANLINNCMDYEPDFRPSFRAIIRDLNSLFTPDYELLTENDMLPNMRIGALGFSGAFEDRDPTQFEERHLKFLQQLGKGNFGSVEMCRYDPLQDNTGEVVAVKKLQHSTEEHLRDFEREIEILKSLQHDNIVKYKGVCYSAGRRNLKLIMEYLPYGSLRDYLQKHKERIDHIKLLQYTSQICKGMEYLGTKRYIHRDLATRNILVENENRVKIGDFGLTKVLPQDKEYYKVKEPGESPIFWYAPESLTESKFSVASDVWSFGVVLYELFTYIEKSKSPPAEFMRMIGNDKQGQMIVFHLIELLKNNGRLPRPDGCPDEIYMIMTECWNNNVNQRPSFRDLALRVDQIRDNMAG
Chain of JAK1 (P23458 whole entry): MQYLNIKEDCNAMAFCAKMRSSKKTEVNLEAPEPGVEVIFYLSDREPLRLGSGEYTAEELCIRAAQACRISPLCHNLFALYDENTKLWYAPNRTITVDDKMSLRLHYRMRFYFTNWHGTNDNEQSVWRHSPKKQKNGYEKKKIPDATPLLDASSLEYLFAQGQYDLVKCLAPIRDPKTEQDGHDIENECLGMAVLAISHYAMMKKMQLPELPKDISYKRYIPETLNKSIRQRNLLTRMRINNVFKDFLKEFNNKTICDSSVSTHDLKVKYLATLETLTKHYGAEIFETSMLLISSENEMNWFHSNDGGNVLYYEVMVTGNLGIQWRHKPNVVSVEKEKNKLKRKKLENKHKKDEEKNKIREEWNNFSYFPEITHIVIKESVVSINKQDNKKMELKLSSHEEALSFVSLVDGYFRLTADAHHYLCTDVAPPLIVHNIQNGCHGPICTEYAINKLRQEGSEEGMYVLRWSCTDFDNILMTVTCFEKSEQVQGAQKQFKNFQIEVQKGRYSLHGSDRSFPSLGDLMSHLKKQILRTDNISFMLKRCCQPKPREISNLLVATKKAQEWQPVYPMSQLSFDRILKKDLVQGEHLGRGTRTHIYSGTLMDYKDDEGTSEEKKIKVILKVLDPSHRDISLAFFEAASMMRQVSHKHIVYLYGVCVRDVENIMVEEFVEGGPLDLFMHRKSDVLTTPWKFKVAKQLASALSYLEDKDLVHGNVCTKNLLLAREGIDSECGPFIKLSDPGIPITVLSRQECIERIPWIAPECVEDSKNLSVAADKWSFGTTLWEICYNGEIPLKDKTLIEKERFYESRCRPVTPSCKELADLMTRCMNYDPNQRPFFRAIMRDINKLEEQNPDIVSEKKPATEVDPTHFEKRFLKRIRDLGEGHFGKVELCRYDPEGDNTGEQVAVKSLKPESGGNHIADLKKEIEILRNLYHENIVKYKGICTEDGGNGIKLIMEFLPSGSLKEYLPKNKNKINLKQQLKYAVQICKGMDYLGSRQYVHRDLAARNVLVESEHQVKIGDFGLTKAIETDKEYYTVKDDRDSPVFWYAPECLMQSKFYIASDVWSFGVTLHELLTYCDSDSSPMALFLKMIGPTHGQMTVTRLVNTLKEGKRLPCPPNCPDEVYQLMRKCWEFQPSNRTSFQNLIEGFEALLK

Row | Compound | Tyk 2 (pKi) [1] | Solubility at PH 7.4 (μmol) [2] | JAK 3 (pKi) [3] | Solubility in PEG400 (mg/mL) [4] | Solubility in Diisopropyl adipate (mg/mL) [4] | Solubility in MCT (mg/mL) [4] | Solubility in Propylene glycol (mg/mL) [4] | JAK 1 (pKi) [5] | JAK 2 (pKi) [6] | concentration at which recovery of IL-22 suppressed Filaggrin expression was observed [7] [µM] | HLM Clin μL/min/mg [8] | Ki ([1]; read-out: Tyk 2 (pKi) (converted)) [nM] | Ki ([3]; read-out: JAK 3 (pKi) (converted)) [nM] | Ki ([5]; read-out: JAK 1 (pKi) (converted)) [nM]
1 | CCS(=O)(=O)N1[C@@H]2CCC[C@H]1C[C@H](N(C)c1nc(CO[C@@H]3CCOC3)c(F)c(Nc3cc(C)[nH]n3)n1)C2 [Compound 43, N2-((1R,3s,5S)-9-(ethylsulfonyl)-9-azabicyclo[3.3.1]nonan-3-yl)-5-fluoro-N2-methyl-N4-(5-methyl-1H-pyrazol-3-yl)-6-((((R)-tetrahydrofuran-3-yl)oxy)methyl)pyrimidine-2,4-diamine] | A (A represents a pKi value ≥10 (Ki≤0.1 nM)) | B (B represents a value between 250 and 500) | B (B represents a pKi value between 9 and 10 (Ki between 1 nM and 0.1 nM)) | A (A represents a value above 10) | A (A represents a value above 10) | C (C represents a value below 5) | A (A represents a value above 10) | B (B represents a pKi value between 9 and 10 (Ki between 1 nM and 0.1 nM)) | A (A represents a pKi value ≥10 (Ki≤0.1 nM)) | < 1 | C (C represents a Clint value between 130 and 500) |  |  | 
2 | CCS(=O)(=O)N1[C@@H]2CCC[C@H]1C[C@H](N(C)c1nc(COC3COC3)c(F)c(Nc3cc(C)[nH]n3)n1)C2 [Compound 41, N2-((1R,3s,5S)-9-(ethylsulfonyl)-9-azabicyclo[3.3.1]nonan-3-yl)-5-fluoro-N2-methyl-N4-(5-methyl-1H-pyrazol-3-yl)-6-((oxetan-3-yloxy)methyl)pyrimidine-2,4-diamine] | A (A represents a pKi value ≥10 (Ki≤0.1 nM)) | D (D represents a value between 10 and 50) | B (B represents a pKi value between 9 and 10 (Ki between 1 nM and 0.1 nM)) | B (B represents a value between 5 and 10) | A (A represents a value above 10) | C (C represents a value below 5) | A (A represents a value above 10) | A (A represents a pKi value ≥10 (Ki≤0.1 nM)) | A (A represents a pKi value ≥10 (Ki≤0.1 nM)) | < 1 | C (C represents a Clint value between 130 and 500) |  |  | 
3 | COC(=O)N1[C@@H]2CCC[C@H]1C[C@H](N(C)c1nc(Nc3cc(C)[nH]n3)cc(O[C@@H]3CCOC3)n1)C2 [Compound 23] |  |  |  |  |  |  |  |  | A (A represents a pKi value ≥10 (Ki≤0.1 nM)) | < 1 |  | 0.1 to 1 | 0.1 to 1 | 0.1 to 1
4 | CCS(=O)(=O)N1[C@@H]2CCC[C@H]1C[C@H](N(C)c1nc(Nc3cc(C)[nH]n3)cc(C3CCCO3)n1)C2 (stereo partly drawn) [Compound 8, N^2-((1R,3s,5S)-9-(ethylsulfonyl)-9-azabicyclo[3.3.1]nonan-3-yl)-N2-methyl-N4-(5-methyl-1H-pyrazol-3-yl)-6-(tetrahydrofuran-2-yl)pyrimidine-2,4-diamine] | A (A represents a pKi value ≥10 (Ki≤0.1 nM)) | C (C represents a value between 50 and 250) | B (B represents a pKi value between 9 and 10 (Ki between 1 nM and 0.1 nM)) | A (A represents a value above 10) | B (B represents a value between 5 and 10) | C (C represents a value below 5) | A (A represents a value above 10) | A (A represents a pKi value ≥10 (Ki≤0.1 nM)) | A (A represents a pKi value ≥10 (Ki≤0.1 nM)) | < 1 | A (A represents a Clint value between 1250 and 3000) |  |  | 
5 | CCS(=O)(=O)N1[C@@H]2CCC[C@H]1C[C@H](N(C)c1nc(CO[C@H]3CCOC3)c(F)c(Nc3cc(C)[nH]n3)n1)C2 [Compound 42, N2-((1R,3s,5S)-9-(ethylsulfonyl)-9-azabicyclo[3.3.1]nonan-3-yl)-5-fluoro-N2-methyl-N4-(5-methyl-1H-pyrazol-3-yl)-6-((((S)-tetrahydrofuran-3-yl)oxy)methyl)pyrimidine-2,4-diamine] | A (A represents a pKi value ≥10 (Ki≤0.1 nM)) | B (B represents a value between 250 and 500) | B (B represents a pKi value between 9 and 10 (Ki between 1 nM and 0.1 nM)) | A (A represents a value above 10) | A (A represents a value above 10) | C (C represents a value below 5) | A (A represents a value above 10) | B (B represents a pKi value between 9 and 10 (Ki between 1 nM and 0.1 nM)) | A (A represents a pKi value ≥10 (Ki≤0.1 nM)) | < 1 | B (B represents a Clint value between 500 and 1250) |  |  | 
